Where “and” joins values, the source holds several entries; their conditions need not be identical. Equal values may be shown once. Read-outs that look alike come from different tables or passages of the source.
Columns and labels:
MDA-MB-468 cells [1] = assay: Cytotoxicity dose response (CellTiter-Glo, 48 h); assay type: cell-based, human
MDA-MB-468 cells [2] = details: cited from earlier work
MCF 10A (normal cells) = assay: Cytotoxicity dose response (CellTiter-Glo, 48 h); assay type: cell-based, human
MDA-MB-231 cells = assay: cells; assay type: cell-based, human
[3] = tested on: intracellular H2O2 in MDA-MB-468 cells; assay: Intracellular H2O2 measurement (AbGreen indicator); assay type: cell-based, human; details: MDA-MB-468 under ascorbic acid treatment, 48 h
MCF 10A cells = assay type: cell-based, human
MCF7 cells [4] = assay: cells; assay type: cell-based, human
MDA-MB-436 cells = assay: cells; assay type: cell-based, human
HMEC cells = assay: cells; assay type: cell-based; details: Homo sapiens, 48 h
MDA-MB-468 cells [5] = assay type: cell-based, human
[6] = tested on: MDA-MB-468 breast cancer xenograft; parameters: species or system immune-deficient female nude mice; details: mouse, in vivo
MDA-MB-468 cells [7] = assay type: cell-based, human; remark: listed apart in the source
[8] = tested on: extracellular H2O2 in MCF7 cells; assay: Extracellular H2O2 measurement (Amplex Red assay); assay type: cell-based, human; details: 48 h
[9] = tested on: extracellular H2O2 in MDA-MB-468 cells; assay: Extracellular H2O2 measurement (Amplex Red assay); assay type: cell-based, human; details: MDA-MB-468 at maximum safe ascorbic acid dose, 48 h
U-87 MG cells [10] = tested on: U-87 MG cells
[11] = tested on: extracellular H2O2 in MCF 10A cells; assay: Extracellular H2O2 measurement (Amplex Red assay); assay type: cell-based, human; details: MCF 10A at maximum safe ascorbic acid dose, 48 h
[12] = tested on: extracellular H2O2 in U-87 MG cells; assay: Extracellular H2O2 measurement (Amplex Red assay); assay type: cell-based; details: U-87 MG at maximum safe ascorbic acid dose, 48 h
MCF7 cells [13] = tested on: MCF7 cells
U-87 MG cells [14] = assay: cells; assay type: cell-based

In the case of `O=C(O)CCCc1ccc(N(CCCl)CCCl)cc1` [Chlorambucil], the “Fold Change” value (MDA-MB-468 cells [1]) is reported as 1 fold, the IC50 (MDA-MB-468 cells [1]; Homo sapiens, MDA-MB-468, 48 h) is reported as 30.2 ± 2.3 µM and the IC50 (MDA-MB-468 cells [1]; Homo sapiens, MDA-MB-468, read-out: IC50 in combination with Vitamin C Safe Dose) is reported as 28.7 ± 2.4 µM. The IC50 (MDA-MB-468 cells [2]) was 34.4 µM.

With `O=C(OC1Cc2c(O)cc(O)cc2OC1c1cc(O)c(O)c(O)c1)c1cc(O)c(O)c(O)c1` (stereo not drawn) [EGCG] the “MSD (Maximum Safe Dose)” value (MCF 10A (normal cells)) was 6.25 µM, the IC50 (MCF 10A (normal cells); Homo sapiens, MCF-10A, 48 h) was 28.5 ± 2.55 µM and the “MSD (Maximum Safe Dose)” value (MDA-MB-468 cells [1]) was 12.50 µM. For the same molecule, the “SI (Selectivity Index)” value (MDA-MB-468 cells [1]) was 0.5, the “SI of Prodrug Combined with Maximum Safety Dose of Pro-oxidant” value (“SI of Prodrug Combined” below) (MDA-MB-468 cells [1]) was 2 and the IC50 (MDA-MB-468 cells [1]; Homo sapiens, MDA-MB-468, 48 h) was 65 ± 3.45 µM.

With `COc1cc(/C=C/C(=O)N2CCC=CC2=O)cc(OC)c1OC` [Piperlogumine] the “MSD (Maximum Safe Dose)” value (MCF 10A (normal cells)) was 1.56 µM, the IC50 (MCF 10A (normal cells); Homo sapiens, MCF-10A, 48 h) was 4.91 ± 0.51 µM and the “MSD (Maximum Safe Dose)” value (MDA-MB-468 cells [1]) was 0.78 µM. The “SI (Selectivity Index)” value (MDA-MB-468 cells [1]) was 2, the “SI of Prodrug Combined” value (MDA-MB-468 cells [1]) was 6 and the IC50 (MDA-MB-468 cells [1]; Homo sapiens, MDA-MB-468, 48 h) was 2.24 ± 0.05 µM.

With `CCCOC(=O)c1cc(O)c(O)c(O)c1` [Propyl Gallate] the “MSD (Maximum Safe Dose)” value (MCF 10A (normal cells)) was 12.50 µM, the IC50 (MCF 10A (normal cells); Homo sapiens, MCF-10A, 48 h) was 51.4 ± 5.45 µM and the “MSD (Maximum Safe Dose)” value (MDA-MB-468 cells [1]) was 25.00 µM. The “SI (Selectivity Index)” value (MDA-MB-468 cells [1]) was 1, the “SI of Prodrug Combined” value (MDA-MB-468 cells [1]) was 3 and the IC50 (MDA-MB-468 cells [1]; Homo sapiens, MDA-MB-468, 48 h) was 49.2 ± 1.83 µM.

With `O=c1c(O)c(-c2ccc(O)c(O)c2)oc2cc(O)cc(O)c12` [Quercetin] the “MSD (Maximum Safe Dose)” value (MCF 10A (normal cells)) was 6.25 µM, the IC50 (MCF 10A (normal cells); Homo sapiens, MCF-10A, 48 h) was 19.6 ± 1.24 µM and the “MSD (Maximum Safe Dose)” value (MDA-MB-468 cells [1]) was 3.13 µM. For the same molecule, the IC50 (MDA-MB-468 cells [1]; Homo sapiens, MDA-MB-468, 48 h) was 15.8 ± 2.15 µM.

With `O=C1O[C@H]([C@@H](O)CO)C(O)=C1O` [Vitamin C] the IC50 (MCF 10A (normal cells)) was 4200 ± 400 µM, the “Maximum Safe Dose (MSD)” value (MCF 10A (normal cells)) was 1.25 mM and the “Maximum Safe Dose (MSD)” value (MDA-MB-231 cells) was 1 mM. For the same molecule, the IC50 (MDA-MB-231 cells; Homo sapiens, MDA-MB-231, 48 h) was 2230 ± 300 µM, the “intracellular H2O2 level compared to untreated samples” value [3] was “significant threefold increase” and the “dose found to be safe” value (MCF 10A cells) was 1 mM. The IC50 (MCF7 cells [4]) was 970 ± 70 µM, the “Maximum Safe Dose (MSD)” value (MCF7 cells [4]) was 0.25 mM and the IC50 (MCF7 cells [4]; Homo sapiens, MCF7, 48 h) was 1000 µM. For the same molecule, the “Maximum Safe Dose (MSD)” value (MDA-MB-436 cells) was 1 mM, the IC50 (MDA-MB-436 cells; Homo sapiens, MDA-MB-436, 48 h) was 1390 ± 100 µM and the “Maximum Safe Dose (MSD)” value (MDA-MB-468 cells [1]) was 1 mM and 1.00 mM. For the same molecule, the IC50 (HMEC cells) was 2670 ± 400 µM, the “dose found to be safe” value (MDA-MB-468 cells [5]) was 1 mM and the “effect on tumor size” value [6] was “observable inhibitory effects on the tumor size”. The “observable DNA damage” value (MDA-MB-468 cells [7]) was “did not show any observable DNA damage”, the “H2O2 generated (most substantial change)” value ([8]; MCF7, increasing mM ascorbic acid) was “over 20 μM” and the “extracellular H2O2 level” value ([8]; MCF7 at maximum safe ascorbic acid dose) was about 7 µM. The “extracellular H2O2 level” value [9] was “around 10 μM”, the “dose found to be safe” value (U-87 MG cells [10]) was 0.25 mM and the “extracellular H2O2 level” value [11] was about 5 µM. The “extracellular H2O2 level” value [12] was about 7 µM, the “dose found to be safe” value (MCF7 cells [13]) was 0.25 mM and the “Maximum Safe Dose (MSD)” value (U-87 MG cells [14]) was 0.3 mM and 0.30 mM. It also gave an IC50 (U-87 MG cells [14]; Homo sapiens, U-87 MG, 48 h) of 1000 µM.

With `Cc1c(C)c2c(c(C)c1O)CCC(C)(CCCC(C)CCCC(C)CCCC(C)C)O2` (stereo not drawn) [Vitamin E] the “MSD (Maximum Safe Dose)” value (MCF 10A (normal cells)) was 25.00 µM, the IC50 (MCF 10A (normal cells); Homo sapiens, MCF-10A, 48 h) was 376 ± 21.4 µM and the “MSD (Maximum Safe Dose)” value (MDA-MB-468 cells [1]) was 1.56 µM. The “SI (Selectivity Index)” value (MDA-MB-468 cells [1]) was 5, the “SI of Prodrug Combined” value (MDA-MB-468 cells [1]) was 11 and the IC50 (MDA-MB-468 cells [1]; Homo sapiens, MDA-MB-468, 48 h) was 76.5 ± 6.62 µM.

With `CC1(C)CCC2=C(O1)c1ccccc1C(=O)C2=O` [β-Lapachone] the “MSD (Maximum Safe Dose)” value (MCF 10A (normal cells)) was 1.56 µM, the IC50 (MCF 10A (normal cells); Homo sapiens, MCF-10A, 48 h) was 3.42 ± 0.22 µM and the “MSD (Maximum Safe Dose)” value (MDA-MB-468 cells [1]) was 0.78 µM. The “SI (Selectivity Index)” value (MDA-MB-468 cells [1]) was 3, the “SI of Prodrug Combined” value (MDA-MB-468 cells [1]) was 2 and the IC50 (MDA-MB-468 cells [1]; Homo sapiens, MDA-MB-468, 48 h) was 1.06 ± 0.17 µM.

With Arsenic Trioxide the “MSD (Maximum Safe Dose)” value (MCF 10A (normal cells)) was 1.56 µM, the IC50 (MCF 10A (normal cells); read-out: IC50) was 8.52 ± 0.4 µM and the “MSD (Maximum Safe Dose)” value (MDA-MB-468 cells [1]) was 0.79 µM. The “SI (Selectivity Index)” value (MDA-MB-468 cells [1]) was 1, the “SI of Prodrug Combined” value (MDA-MB-468 cells [1]) was 5 and the IC50 (MDA-MB-468 cells [1]; read-out: IC50) was 6.27 ± 0.33 µM.
